molecular target: B-Raf(V599E) kinase (Homo sapiens, UniProt P15056, V600E); experiment: B-Raf(V599E) kinase assay B1 (construct 1, MEK1 substrate, coupled spectrophotometric); type: biochemical
Procedure: The test compounds were incubated with the reaction mixtureat 30° C. for 2 h. […] The reaction rate was calculated using the […] time frame. […] IC50 values were calculated from a series of percent inhibition values determined at a range of inhibitor concentrations using software routines as implemented in the GraphPad Prism software package.

B-Raf(V599E) kinase, sequence (P15056 with tags, fused parts or gaps V600E): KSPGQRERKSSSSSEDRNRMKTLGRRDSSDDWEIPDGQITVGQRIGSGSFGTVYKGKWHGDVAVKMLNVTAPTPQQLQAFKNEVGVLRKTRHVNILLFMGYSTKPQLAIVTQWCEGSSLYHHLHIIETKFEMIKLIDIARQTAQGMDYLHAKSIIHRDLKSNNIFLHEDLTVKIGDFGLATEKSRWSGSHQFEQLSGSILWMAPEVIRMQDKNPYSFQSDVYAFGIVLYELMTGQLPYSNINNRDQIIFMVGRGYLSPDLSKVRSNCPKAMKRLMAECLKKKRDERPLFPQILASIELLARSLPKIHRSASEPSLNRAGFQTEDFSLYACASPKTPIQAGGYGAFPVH

First: CC(C)(C)c1cc(NC(=O)Nc2cccc(Cl)c2Cl)n(-c2cccc(CC(N)=O)c2)n1 [Example 25, 1-{1-[3-(2-amino-2-oxoethyl)phenyl]-3-t-butyl-1H-pyrazol-5-yl}-3-(2,3-dichlorophenyl)urea]
Second: CC(C)(C)c1cc(NC(=O)Nc2cccc(Cl)c2Cl)n(-c2cccc(C(=O)O)c2)n1 [Example 226, 3-{3-t-butyl-5-[3-(2,3-dichlorophenyl)ureido]-1H-pyrazol-1-yl}benzoic acid]
The IC50 of the first is 5.7-fold lower: 3.5 nM for the first, 20 nM for the second. The first is the more potent here.

First: CC(C)(C)c1cc(NC(=O)Nc2ccccc2)n(-c2cc(CC(N)=O)c3ccccc3c2)n1 [Example 88, 1-(1-(4-(2-amino-2-oxoethyl)naphthalen-2-yl)-3-t-butyl-1H-pyrazol-5-yl)-3-phenylurea]
Second: CC(C)(C)c1cc(NC(=O)Nc2ccccc2F)n(-c2cc(CC(N)=O)c3ccccc3c2)n1 [Example 89, 1-(1-(4-(2-amino-2-oxoethyl)naphthalen-2-yl)-3-t-butyl-1H-pyrazol-5-yl)-3-(2-fluorophenyl)urea]
The IC50 of the first is 2.2-fold higher: 12 nM for the first, 5.5 nM for the second. The second is the more potent here.

Compared with CC(C)(C)c1cc(NC(=O)Nc2cccc(F)c2F)n(-c2cc(CC(N)=O)c3ccccc3c2)n1 [Example 90, 1-(1-(4-(2-amino-2-oxoethyl)naphthalen-2-yl)-3-t-butyl-1H-pyrazol-5-yl)-3-(2,3-difluorophenyl)urea], CC(C)(C)c1cc(NC(=O)Nc2cc(F)c(F)c(F)c2)n(-c2cc(CC(N)=O)c3ccccc3c2)n1 [Example 92, 1-(1-(4-(2-amino-2-oxoethyl)naphthalen-2-yl)-3-t-butyl-1H-pyrazol-5-yl)-3-(3,4,5-trifluorophenyl)urea] is 2.1-fold higher in IC50: 3.9 nM for the first, 8.2 nM for the second. The first is the more potent here.

CC(C)(C)c1cc(NC(=O)NC2CCCC2)n(-c2cc(CC(N)=O)c3ccccc3c2)n1 [Example 93, 1-(1-(4-(2-amino-2-oxoethyl)naphthalen-2-yl)-3-t-butyl-1H-pyrazol-5-yl)-3-cyclopentylurea] and CC(C)(C)c1cc(NC(=O)Nc2ccccc2F)n(-c2cccc(CO)c2)n1 [Example 219, 1-{3-t-butyl-1-[3-(hydroxymethyl)phenyl]-1H-pyrazol-5-yl}-3-(2-fluorophenyl)urea] are within 1.5-fold of each other in IC50: 60 nM for the first, 55 nM for the second.

Compared with C[C@H](NC(=O)Nc1cc(C(C)(C)C)nn1-c1cccc(C#N)c1)c1ccccc1 [Example 211, 1-[3-t-butyl-1-(3-cyanophenyl)-1H-pyrazol-5-yl]-3-((S)-1-phenylethyl)urea], COc1cccc(-n2nc(C(C)(C)C)cc2NC(=O)Nc2cccc(Cl)c2)c1 [Example 231, 1-(3-t-butyl-1-(3-methoxyphenyl)-1H-pyrazol-5-yl)-3-(3-chlorophenyl)urea] is 29-fold lower in IC50: 785 nM for the first, 27 nM for the second.

Going from CC(C)(C)c1cc(NC(=O)Nc2ccc3c(c2)OCO3)n(-c2cccc(CO)c2)n1 [Example 221, 1-(benzo[d][1,3]dioxol-5-yl)-3-(3-t-butyl-1-(3-(hydroxymethyl)phenyl)-1H-pyrazol-5-yl)urea] to COc1cccc(-n2nc(C(C)(C)C)cc2NC(=O)Nc2ccc3c(c2)OCO3)c1 [Example 234, 1-(benzo[d][1,3]dioxo-5-yl)-3-(3-t-butyl-1-(3-methoxyphenyl)-1H-pyrazol-5-yl)urea], the IC50 falls from 88 nM to 32 nM (2.8-fold). The second is the more potent here.

CC(C)(C)c1cc(NC(=O)Nc2cccc(Cl)c2)n(-c2cccc(CO)c2)n1 [Example 222] and CC(C)(C)c1cc(NC(=O)Nc2cccc(Br)c2)n(-c2cccc(CO)c2)n1 [Example 223, 1-{3-t-butyl-1-[3-(hydroxymethyl)phenyl]-1H-pyrazol-5-yl}-3-(3-bromophenyl)urea] are within 1.5-fold of each other in IC50: 47 nM for the first, 54 nM for the second.

COc1cccc(-n2nc(C(C)(C)C)cc2NC(=O)Nc2ccc(F)cc2)c1 [Example 230, 1-(3-t-butyl-1-(3-methoxyphenyl)-1H-pyrazol-5-yl)-3-(4-fluorophenyl)urea] and COc1ccc(-n2nc(C(C)(C)C)cc2NC(=O)Nc2cccc(C(F)(F)F)c2)cc1 [Example 238, 1-[3-t-butyl-1-(4-methoxyphenyl)-1H-pyrazol-5-yl]-3-(3-trifluoromethylphenyl)urea] are within 1.5-fold of each other in IC50: 52 nM for the first, 65 nM for the second.

From patent publication US8163756B2 (priority 2004, dated 2012)
